{"source": "paper PMC10933344", "about": "“A lncRNA Dleu2-encoded peptide relieves autoimmunity by facilitating Smad3-mediated Treg induction” (EMBO Reports, 2024)", "system": "Foxp3 CNS1-luciferase reporter / Smad3", "assay": "Foxp3 CNS1-luciferase reporter assay in NIH/3T3 cells", "type": "cell-based, mouse", "settings": "20 μM", "description": "Figure 4 Dleu2-17aa modulates TGF-β/Smad signaling to promote Foxp3 transcription. (A) qPCR analysis of TGF-β/Smad signaling downstream genes in CD4^+ T cells treated with Dleu2-17aa or scrPEP for 24 h and challenged with TGF-β to activate the signaling pathway (n = 3). (B) NIH/3T3 cells were transfected with a Foxp3 CNS1-luciferase reporter plasmid and a Smad3 expression vector. Subsequently, the cells were treated with either Dleu2-17aa or scrPEP. Luciferase activity fold induction was quantified (n = 3). (C) Foxp3 CNS1 region enrichment by Smad3 treated with or without Dleu2-17aa for 24 h in CD4^+ T cells was assessed by ChIP-qPCR (n = 3). (D) EMSA was performed in NIH/3T3 cell nuclear lysates using a 10 μM biotin-labeled Foxp3 probe and treated with Dleu2-17aa or scrPEP (3, 10, 30 μM). There were band shifts to a higher molecular weight and an increase in band intensity by Dleu2-17aa treatment. Data information: n indicates biological replicate. Error bars are mean ± SEM; **P < 0.01, and ***P < 0.001. Statistical analysis was by two-tailed Student’s t-test for (A–C). Source data are available online for this figure.\nNIH/3T3 cells were seeded at 5 × 10^5 cells/well in 24-well plates and transfected with 0.2 μg/well of pGL3 Foxp3 CNS1-luciferase reporter and the internal control vector pRL-TK (Promega) at a ratio of 10:1 (reporter construct: control vector) using LipofectamineTM 2000 according to the manufacturer’s protocol; For specific groups, co-transfect with pcDNA3.1-Smad3, an empty vector served as the control. After 7 h, remove the transfection medium and replace it with fresh medium containing either 20 μM Dleu2-17aa or PBS. 24 h post-transfection, luciferase activity was measured using the Dual-Luciferase® Reporter Assay System (Promega) according to the manufacturer’s protocol.", "data": [{"sequence": "ARGPARRMRGGRRRRLR [scrPEP, scrambled control peptide of Dleu2-17aa]", "values": [{"measurement": "Relative luciferase activity", "setting": "with Smad3 vector, replicate 1", "result": 2.57}, {"measurement": "Relative luciferase activity", "setting": "with Smad3 vector, replicate 2", "result": 2.653}, {"measurement": "Relative luciferase activity", "setting": "with Smad3 vector, replicate 3", "result": 2.615}, {"measurement": "Relative luciferase activity", "setting": "without Smad3 vector, replicate 1", "result": 0.9636}, {"measurement": "Relative luciferase activity", "setting": "without Smad3 vector, replicate 2", "result": 0.91}, {"measurement": "Relative luciferase activity", "setting": "without Smad3 vector, replicate 3", "result": 1.069}]}]}
